# Data reported in US20180148418A1, “AMIDO-SUBSTITUTED CYCLOHEXANE DERIVATIVES” (Bayer Pharma Aktiengesellschaft, priority 2015, published 2018).
# Columns and labels:
# [1] = tested on: HEK293 cells cotransfected with the FOP control vector; test: HEK293 FOP assay (control reporter with non-functional TCF elements); format: cell-based; settings: Homo sapiens, 16 hours
# In short: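 Compound series from 50 μM down to 15 nM, prediluted in DMSO then 50-fold into CAFTY buffer (pH 7.4, 2 mM Ca2+, 0.01% BSA), tested alongside TOP cells on a Geneticin-selected HEK293 FOP line whose TCF elements are replaced by a random sequence; recombinant human Wnt-3a applied at 2500-5 ng/ml.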
# TNKS2 = target: T1, TNKS2 (Homo sapiens, UniProt Q9H2K2); test: TNKS2 Assay B (auto-parsylation, [3H]-NAD+ SPA); format: biochemical; settings: 6 nM TNKS2, auto-parsylation, over night at room temperature
# T1 construct: purchased BPS Bioscience, San Diego, USA 80572 (TNKS2 Histone Ribosylation Assay Kit)
# T1 sequence (Q9H2K2 1-1166): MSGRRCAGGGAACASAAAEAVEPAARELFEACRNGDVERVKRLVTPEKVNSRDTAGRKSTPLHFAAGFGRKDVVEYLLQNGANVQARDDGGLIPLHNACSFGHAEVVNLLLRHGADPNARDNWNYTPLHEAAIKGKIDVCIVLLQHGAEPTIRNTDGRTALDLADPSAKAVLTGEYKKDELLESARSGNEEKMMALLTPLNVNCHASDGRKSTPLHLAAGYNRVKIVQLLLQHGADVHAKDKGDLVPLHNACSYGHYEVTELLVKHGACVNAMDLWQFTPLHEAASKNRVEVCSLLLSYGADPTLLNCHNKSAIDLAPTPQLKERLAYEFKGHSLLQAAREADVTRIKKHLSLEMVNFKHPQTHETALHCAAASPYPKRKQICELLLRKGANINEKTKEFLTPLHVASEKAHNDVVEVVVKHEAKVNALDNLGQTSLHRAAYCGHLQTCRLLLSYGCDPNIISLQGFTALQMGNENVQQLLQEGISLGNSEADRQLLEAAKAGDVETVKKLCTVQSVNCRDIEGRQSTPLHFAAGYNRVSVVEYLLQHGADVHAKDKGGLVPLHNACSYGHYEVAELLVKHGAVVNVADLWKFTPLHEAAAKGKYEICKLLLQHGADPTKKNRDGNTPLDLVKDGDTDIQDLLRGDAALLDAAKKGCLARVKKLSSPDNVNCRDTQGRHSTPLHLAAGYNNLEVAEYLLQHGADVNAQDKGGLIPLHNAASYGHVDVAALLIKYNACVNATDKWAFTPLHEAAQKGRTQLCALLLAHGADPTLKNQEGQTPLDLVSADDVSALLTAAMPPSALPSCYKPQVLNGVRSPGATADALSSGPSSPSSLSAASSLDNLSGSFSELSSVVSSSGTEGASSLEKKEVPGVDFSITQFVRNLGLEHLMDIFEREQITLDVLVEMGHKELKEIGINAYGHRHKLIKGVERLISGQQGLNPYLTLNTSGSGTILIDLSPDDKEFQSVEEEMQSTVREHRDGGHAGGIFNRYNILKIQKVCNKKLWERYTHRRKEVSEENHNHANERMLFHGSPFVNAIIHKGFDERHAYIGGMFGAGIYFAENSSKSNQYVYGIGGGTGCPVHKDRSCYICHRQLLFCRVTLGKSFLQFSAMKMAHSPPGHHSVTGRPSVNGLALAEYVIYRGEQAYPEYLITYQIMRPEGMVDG
smiles,measurement,setting,value
"O=C(NC1CCC2(CC1)CCN(c1cc(F)c(F)cc1Cl)C2=O)c1cnn2cccnc12 (single isomer, unassigned; isomer 1) [Example 168, N-[2-(2-chloro-4,5-difluorophenyl)-1-oxo-2-azaspiro[4.5]dec-8-yl]pyrazolo[1,5-a]pyrimidine-3-carboxamide (isomer 1)]",IC50,[1],≥ 50000 nM
same,IC50,TNKS2,3.1 nM
"CNC(=O)c1nc[nH]c1C(=O)N[C@H]1CC[C@H](C(=O)Nc2cccnc2Cl)CC1 [Example 10, N^5-{trans-4-[(2-chloropyridin-3-yl)carbamoyl]cyclohexyl}-N^4-methyl-1H-imidazole-4,5-dicarboxamide]",IC50,[1],≥ 50000 nM
same,IC50,TNKS2,240 nM
"CNC(=O)c1nc[nH]c1C(=O)N[C@H]1CC[C@H](C(=O)Nc2ccncc2Cl)CC1 [Example 11, N^5-{trans-4-[(3-chloropyridin-4-yl)carbamoyl]cyclohexyl}-N^4-methyl-1H-imidazole-4,5-dicarboxamide]",IC50,[1],≥ 50000 nM
same,IC50,TNKS2,210 nM
"CC1CCN(CCNC(=O)c2nc[nH]c2C(=O)N[C@H]2CC[C@H](C(=O)Nc3ccc(F)cc3Cl)CC2)CC1 [Example 12, N^5-{trans-4-[(2-chloro-4-fluorophenyl)carbamoyl]cyclohexyl}-N^4-[2-(4-methylpiperidin-1-yl)ethyl]-1H-imidazole-4,5-dicarboxamide]",IC50,[1],≥ 50000 nM
same,IC50,TNKS2,7.2 nM
"O=C(NCCN1CCOCC1)c1nc[nH]c1C(=O)N[C@H]1CC[C@H](C(=O)Nc2ccc(F)cc2Cl)CC1 [Example 13, N^5-{trans-4-[(2-chloro-4-fluorophenyl)carbamoyl]cyclohexyl}-N^4-[2-(morpholin-4-yl)ethyl]-1H-imidazole-4,5-dicarboxamide]",IC50,[1],≥ 50000 nM
same,IC50,TNKS2,19 nM
"O=C(N[C@H]1CC[C@H](C(=O)Nc2ccc(F)cc2Cl)CC1)c1[nH]cnc1C(=O)N1CC2(COC2)C1 [Example 14, N-{trans-4-[(2-chloro-4-fluorophenyl)carbamoyl]cyclohexyl}-4-(2-oxa-6-azaspiro[3.3]hept-6-ylcarbonyl)-1H-imidazole-5-carboxamide]",IC50,[1],≥ 50000 nM
same,IC50,TNKS2,37 nM
"CCNC(=O)c1nc[nH]c1C(=O)N[C@H]1CC[C@H](C(=O)Nc2ccc(F)cc2Cl)CC1 [Example 15, N^5-{trans-4-[(2-chloro-4-fluorophenyl)carbamoyl]cyclohexyl}-N^4-ethyl-1H-imidazole-4,5-dicarboxamide]",IC50,[1],≥ 50000 nM
same,IC50,TNKS2,42 nM
"CN(C)C(=O)c1nc[nH]c1C(=O)N[C@H]1CC[C@H](C(=O)Nc2ccc(F)cc2Cl)CC1 [Example 16, N^5-{trans-4-[(2-chloro-4-fluorophenyl)carbamoyl]cyclohexyl}-N^4,N^4-dimethyl-1H-imidazole-4,5-dicarboxamide]",IC50,[1],≥ 50000 nM
same,IC50,TNKS2,1200 nM
"O=C(NC1CC1)c1nc[nH]c1C(=O)N[C@H]1CC[C@H](C(=O)Nc2ccc(F)cc2Cl)CC1 [Example 17, N^5-{trans-4-[(2-chloro-4-fluorophenyl)carbamoyl]cyclohexyl}-N^4-cyclopropyl-1H-imidazole-4,5-dicarboxamide]",IC50,[1],≥ 50000 nM
same,IC50,TNKS2,90 nM
"O=C(NCCO)c1nc[nH]c1C(=O)N[C@H]1CC[C@H](C(=O)Nc2ccc(F)cc2Cl)CC1 [Example 18, N^5-{trans-4-[(2-chloro-4-fluorophenyl)carbamoyl]cyclohexyl}-N^4-(2-hydroxyethyl)-1H-imidazole-4,5-dicarboxamide]",IC50,[1],≥ 50000 nM
same,IC50,TNKS2,120 nM
"COCCNC(=O)c1nc[nH]c1C(=O)N[C@H]1CC[C@H](C(=O)Nc2ccc(F)cc2Cl)CC1 [Example 19, N^5-{trans-4-[(2-chloro-4-fluorophenyl)carbamoyl]cyclohexyl}-N^4-(2-methoxyethyl)-1H-imidazole-4,5-dicarboxamide]",IC50,[1],≥ 50000 nM
same,IC50,TNKS2,160 nM
"CC(C)NC(=O)c1nc[nH]c1C(=O)N[C@H]1CC[C@H](C(=O)Nc2ccc(F)cc2Cl)CC1 [Example 20, N^5-{trans-4-[(2-chloro-4-fluorophenyl)carbamoyl]cyclohexyl}-N^4-isopropyl-1H-imidazole-4,5-dicarboxamide]",IC50,[1],≥ 50000 nM
same,IC50,TNKS2,130 nM
"O=C(NCC(F)(F)F)c1nc[nH]c1C(=O)N[C@H]1CC[C@H](C(=O)Nc2ccc(F)cc2Cl)CC1 [Example 21, N^5-{trans-4-[(2-chloro-4-fluorophenyl)carbamoyl]cyclohexyl}-N^4-(2,2,2-trifluoroethyl)-1H-imidazole-4,5-dicarboxamide]",IC50,[1],≥ 50000 nM
same,IC50,TNKS2,83 nM
"O=C(N[C@H]1CC[C@@]2(CCN(c3ccc(F)cc3Cl)C2=O)CC1)c1[nH]cnc1C(=O)N1CCN(CC(F)(F)F)CC1 [Example 167, N-[(trans)-2-(2-chloro-4-fluorophenyl)-1-oxo-2-azaspiro[4.5]dec-8-yl]-4-{[4-(2,2,2-trifluoroethyl)piperazin-1-yl]carbonyl}-1H-imidazole-5-carboxamide]",IC50,[1],≥ 50000 nM
same,IC50,TNKS2,270 nM
"Cc1cc(C)n2ncc(C(=O)N[C@H]3CC[C@H](C(=O)Nc4cnccc4Cl)CC3)c2n1 [Example 169, N-{trans-4-[(4-chloropyridin-3-yl)carbamoyl]cyclohexyl}-5,7-dimethylpyrazolo[1,5-a]pyrimidine-3-carboxamide]",IC50,[1],≥ 50000 nM
same,IC50,TNKS2,14 nM
"CNC(=O)c1nc[nH]c1C(=O)N[C@H]1CC[C@H](C(=O)Nc2cc(C(C)(C)O)ccc2Cl)CC1 [Example 170, N^5-(trans-4-{[2-chloro-5-(2-hydroxypropan-2-yl)phenyl]carbamoyl}cyclohexyl)-N^4-methyl-1H-imidazole-4,5-dicarboxamide]",IC50,[1],≥ 50000 nM
same,IC50,TNKS2,1500 nM
"CNC(=O)c1nc[nH]c1C(=O)N[C@H]1CC[C@H](C(=O)N(C)c2ccccc2)CC1 [Example 171, N^4-methyl-N^5-{trans-4-[methyl(phenyl)carbamoyl]cyclohexyl}-1H-imidazole-4,5-dicarboxamide]",IC50,[1],≥ 50000 nM
same,IC50,TNKS2,150 nM
"CNC(=O)c1nc[nH]c1C(=O)N[C@H]1CC[C@H](C(=O)N(C)c2ccc(F)cc2)CC1 [Example 172, N^5-{trans-4-[(4-fluorophenyl)(methyl)carbamoyl]cyclohexyl}-N^4-methyl-1H-imidazole-4,5-dicarboxamide]",IC50,[1],≥ 50000 nM
same,IC50,TNKS2,510 nM
"CNC(=O)c1nc[nH]c1C(=O)N[C@H]1CC[C@H](C(=O)N(C)c2ccc(F)cc2Cl)CC1 [Example 173, N^5-{trans-4-[(2-chloro-4-fluorophenyl)(methyl)carbamoyl]cyclohexyl}-N^4-methyl-1H-imidazole-4,5-dicarboxamide]",IC50,[1],≥ 50000 nM
same,IC50,TNKS2,180 nM
"Cc1cc(N(C)C(=O)[C@H]2CC[C@H](NC(=O)c3cnn4cccnc34)CC2)c(Cl)cc1F [Example 176, N-{trans-4-[(2-chloro-4-fluoro-5-methylphenyl)(methyl)carbamoyl]cyclohexyl}pyrazolo[1,5-a]pyrimidine-3-carboxamide]",IC50,[1],5300 nM
same,IC50,TNKS2,130 nM
"O=C(N[C@H]1CC[C@H](C(=O)N(CC2CC2)c2ccc(F)cc2Cl)CC1)c1cnn2cccnc12 [Example 177, N-{trans-4-[(2-chloro-4-fluorophenyl)(cyclopropylmethyl)carbamoyl]cyclohexyl}pyrazolo[1,5-a]pyrimidine-3-carboxamide]",IC50,[1],40000 nM
same,IC50,TNKS2,9.2 nM
"Cc1ccccc1N(C)C(=O)[C@H]1CC[C@H](NC(=O)c2cnn3cccnc23)CC1 [Example 178, N-{trans-4-[methyl(2-methylphenyl)carbamoyl]cyclohexyl}pyrazolo[1,5-a]pyrimidine-3-carboxamide]",IC50,[1],≥ 50000 nM
same,IC50,TNKS2,230 nM
"C[C@]1(C(=O)Nc2ccc(F)cc2Cl)CC[C@H](NC(=O)c2cnn3cccnc23)CC1 [Example 179, N-{trans-4-[(2-chloro-4-fluorophenyl)carbamoyl]-4-methylcyclohexyl}pyrazolo[1,5-a]pyrimidine-3-carboxamide]",IC50,[1],≥ 50000 nM
same,IC50,TNKS2,330 nM
